Results from patent USRE45810E1, “Process for producing spherical base granule comprising easily water-soluble drug” (ASAHI KASEI CHEMICALS CORPORATION, priority 2006, dated 2015).
Read-outs that look alike come from different tables or passages of the source. Values belong to the molecule of their own block, whether it stands above or below them.

How the values were obtained:
[1] = Tackiness of dried film of layering liquid, finger test by panel of three experts; assay type: physicochemical
Protocol: A layering liquid (3 g) is poured in a polypropylene Petri dish having a diameter of 8 cm and dried at 40° C. in an air-circulation-free dryer (“FC610”, product of Advantec Co., Ltd.). Within three seconds after taking out the dried product from the dryer, tackiness of the dried film when an index finger is pressed against the film for two seconds and then released therefrom is evaluated by a panel of three experts. The tackiness is rated as “1” when no tackiness is observed, “2” when a little tackiness is observed, “3” when tackiness is observed, “4” when strong tackiness is observed, and “5” when very strong tackiness is observed. The tackiness of the dried film is evaluated by the average of them.
It is known empirically that agglomeration occurs during layering when the tackiness is “3” or higher so that the layering rate must be set low to prevent it. Layering cannot be performed in practice when the tackiness is “5”.

[2] = in 1 cm^3 of water of 20° C., cited from earlier work

Tackiness of layering liquid (in words) [1]: do not show a tackiness reducing effect
Structure (SMILES): OC[C@@H](O)[C@@H](O)[C@H](O)[C@@H](O)CO [Sorbitol, sorbitol]
Solubility [2]: 0.9 g

Structure (SMILES): OC[C@@H](O)[C@@H](O)[C@H](O)[C@H](O)CO [D-mannitol]
Solubility [2]: 0.18 g

Structure (SMILES): O=C(CO)[C@@H](O)[C@H](O)[C@H](O)CO [Fructose, fructose]
Tackiness of layering liquid (in words) [1]: do not show a tackiness reducing effect
Solubility [2]: 6 g
Solubility ([2]; listed as fructose): 0.6 g
